Source: EPA's ToxValDB 9.5
In brackets after ≈: the same amount, converted by molar mass. Several values for one entry are separate records, joined by “and”; a condition that tells them apart may be missing. Identical values can stand only once.

How the values were obtained:
[1] = system: Canidae; settings: chronic, Beagle
[2] = system: Mus musculus; settings: oral, gavage
[3] = system: Oryctolagus sp.; settings: New Zealand; for LD50: acute, dermal; for NOAEL: reproduction developmental, duration: 13 days, inhalation
[4] = system: Rattus norvegicus
[5] = system: Rattus norvegicus; settings: oral, gavage
[6] = system: Canidae; settings: subchronic; duration: 13 weeks; oral; capsule; M/F; Dog Other; histopathologic liver
[7] = system: Rattus norvegicus; settings: reproduction developmental; inhalation; whole body; M/F; Crl:CD(SD); Hepatic, Urinary
[8] = system: Mus musculus; assay: LD100; higher = less toxic; settings: acute; oral; gavage; B6C3F1
[9] = system: Sus scrofa; settings: repeat dose other; oral; diet; M/F; Not specified; Renal proximal tubule degeneration & interstitial nephropathy
[10] = system: Rattus norvegicus; assay: LC100; higher = less toxic; settings: acute; inhalation; Sprague-Dawley
[11] = system: Cavia porcellus; settings: uterotrophic; duration: 12 days; injection; subcutaneous; Guinea Pig; Active
[12] = system: Rattus norvegicus; assay: LD10; higher = less toxic; settings: acute; inhalation
[13] = system: Rattus norvegicus; settings: dietary / carcinogenicity; duration: 2 years; oral; feed; M/F; Hepatocellular lipid vacuolation
[14] = reproduction developmental, duration: 13 weeks, B6C3F1, generation: F0
[15] = reproduction developmental, duration: 13 weeks, oral, gavage, Fischer 344, generation: F0
[16] = short-term, duration: 28 days, M, Sprague-Dawley, Clinical Observation: Salivation increase + Blood Chemistry: AST increase, T-Cho decrease, CRE increase, TP increase, ALB increase, GLUC …
[17] = short-term, duration: 18 days, inhalation, Sprague-Dawley

Work on `Clc1ccccc1` [Chlorobenzene] yielded an NOAEL ([1]; duration: 6 months, inhalation) of 2.06 mg/L, an NOAEL ([1]; duration: 93 days, oral) of 54.5 mg/kg-day and an LOAEL [2, 14] of 250 mg/kg-day. For the same compound, the NOAEL [2, 14] was 125 mg/kg-day, the LD50 [3] was > 7940 mg/kg and the NOAEL ([3]; F) was 345 mg/m3. For the same compound, the NOAEL ([3]; generation: F1) was 2720 mg/m3, the LD50 ([4]; acute, oral, Sprague-Dawley) was 1540 mg/kg and the LD50 ([4]; acute, oral, gavage, Fischer 344) was ≥ 2000 mg/kg and ≤ 4000 mg/kg. The LOAEL [4, 15] was 250 mg/kg-day, the NOAEL [4, 15] was 125 mg/kg-day and the NOAEL ([4]; reproduction developmental, inhalation, Sprague-Dawley, generation: F0) was 230 mg/m3. For the same compound, the NOAEL ([4]; reproduction developmental, inhalation, Sprague-Dawley, generation: F1) was 2070 mg/m3, the NOAEL ([4]; reproduction developmental, inhalation, Sprague-Dawley, generation: F2) was 2070 mg/m3 and the NOEL ([5]; subchronic, duration: 13 weeks, M/F, Fischer 344, Deaths + Body Weight Changes: decrease + Urinalysis: Volume increase, Coproporphyrin increase + Blood Chemistry: Cho increase, TG decrease, …) was < 60 mg/kg-day. The LOAEL [6] was 54.5 mg/kg-day, the NOAEL [6] was 27.2 mg/kg-day and the NOAEL [7] was 230 mg/m3. It also gave an LD100 [8] of 1000 mg/kg.
For `C[C@@H]1Cc2c(Cl)cc(C(=O)N[C@@H](Cc3ccccc3)C(=O)O)c(O)c2C(=O)O1` [Ochratoxin A], the NOAEL [5, 16] was < 0.2 mg/kg-day, the NOEL [5, 16] was < 0.2 mg/kg-day and the NOEL ([5]; subchronic, duration: 13 weeks, M/F, Fischer 344, Body Weight Changes: decrease + Relative Organ Weight: Right kidney decrease + Histopathology: Kidney-Karyomegaly Kidney-Atrophy Kidney/…) was < 0.0625 mg/kg-day. For the same compound, the LOEL [9] was 0.008 mg/kg-day.
With `CCC#N` [Propionitrile] the LD50 ([3]; occlusive) was 90 mg/kg and 40 mg/kg and 56 mg/kg, the LC50 ([4]; acute, inhalation, Sprague-Dawley) was 3.3 µg/mL (≈ 59.9 µM) and the NOAEL ([4]; developmental, duration: 6 days, oral, gavage, Sprague-Dawley) was 40 mg/kg-day. For the same compound, the NOAEL ([4]; reproduction developmental, duration: 14 weeks, inhalation, Sprague-Dawley) was > 471 mg/m3, the NOAEL ([4]; reproduction developmental, duration: 46 days, inhalation, Sprague-Dawley, generation: F0) was 135 mg/m3 and the NOAEL ([4]; reproduction developmental, duration: 46 days, inhalation, Sprague-Dawley, generation: F1) was 473 mg/m3. The LOAEL [4, 17] was 741 mg/m3, the NOAEL [4, 17] was 259 mg/m3 and the LC100 [10] was 90.3 mg/L.
With `CC/C(=C(\c1ccccc1)c1ccc(OCCN(C)C)cc1)c1ccccc1` [Tamoxifen] the LEL [11] was 0.1 mg/day.
With `C=C1CC(=O)O1` [Diketene] the LD50 ([2]; acute) was ≥ 800 mg/kg and ≤ 1600 mg/kg, the LD50 ([4]; acute, oral, gavage) was ≥ 400 mg/kg and ≤ 800 mg/kg and the LD10 [12] was 1270 mg/m3 and ≥ 1190 mg/m3 and ≤ 1410 mg/m3.
`COC(=O)Nc1nc2ccc(S(=O)c3ccccc3)cc2[nH]1` (configuration not stated) [Oxfendazole] was tested, and the NOEL [13] was 0.7 mg/kg-day.
